# From patent US20070212403A1, “Method for Selecting Cationic or Anionic Liposomes for Treatment of a Mucosa Membrane, and Kit Comprising the Same” (Yissum Research Development Company of the Hebrew …, priority 2003, published 2007)
# Key:
# tumor recurrence = conditions: animal model, peritoneal wound site; cited from earlier work
# jejunal mucosa = experiment: Local oxidative stress (hypoxanthine/xanthine oxidase-FeSO4) in perfused rat jejunum; format: in vivo; conditions: 20 min perfusion pretreatment before hydroxyl radical induction; for tissue LDH activity: mean±SEM
# Method: Hydroxyl radicals were induced in the jejunum (15 cm long segment) of each of four group of anaesthetized Sabra rats, by the perfusion of a mixture of 6 mM hypoxanthine, 3 U/ml of xanthine oxidase, 10 mM FeSO4 and 1 mM EDTA in saline over 30 min, using a closed rat jejunal loop system at a rate of 1 ml/min, as described elsewhere [Kohen R. et al. J. Biol Chem. 1992, 267:21349-21354].
# In separate studies two groups of rats (4 rats in each group) were perfused with either 35 U/ml SOD or liposomal SOD over 20 min. A 10 min saline rinse was then performed, followed by the hydroxyl radicals induction as described above. Similarly, the other two groups (4 rats each) were perfused with 5 mM free TMN or liposomal TMN over 20 min. A 10 min saline rinse was then performed, followed by hydroxyl radicals induction as described above. Control studies included (a) a group of rats, perfused with normal saline over 30 minutes prior to the oxidative damage induction, (b) a group of rats, perfused with normal saline for 20 min (naive control). At the end of each study, the perfused jejunal segment was separated from the anaesthetized animal, the mucosal epithelial layer delicately scraped and homogenized in 5 ml of distilled water on ice.
# Assuming that tissue insult would cause leakage of enterocyte contents, the induced damage was characterized by measuring tissue (a) activity of lactate dehydrogenase (LDH) at 340 nm with pyruvic acid as the substrate and NADH as the electron donor. For this purpose, 1 ml of the tissue homogenate was centrifuged at 5000 g for 15 min. LDH activity was measured in the supernatant; (b) potassium levels by atomic absorption. All measurements were repeated four times, and the results were normalized to tissue dry weight.
# [1] = tested on: epithelium of the rat intestine; experiment: Tissue uptake of free and liposomal SOD and TMN in intestinal sacs; conditions: for tissue uptake: 60 min incubation, mean±SEM
# Method: The abdomens of anesthetized healthy Sabra rats were cut open and 10 cm long segments of the distal colon were excised, separated and rinsed with PBS. Colon sacs (5 cm each) were prepared by tying one end with 3/0 silk suture, filling with 0.4 ml of free or liposomal suspension of either TMN or FITC-SOD (diluted×10 in PBS), and tying at the other end.
# The sacs were incubated in 15 ml of PBS, containing 10 mM glucose, at 37° C., in a glass vial in a shaking bath for 60 min. At the end of the incubation, the sacs were cut open, rinsed three times by PBS immersion and weighed. For detection of FITC-SOD attachment and uptake (subsequently referred to generally as uptake, as internalization and attachment cannot be discriminated using these methods), the colon sac preparations were homogenized (Polytron, Kinematicas, Berlin, Germany) in a solution containing isopropanol: pH 9.0 borate buffer 9:1. One milliliter of the homogenate was centrifuged at 14,000 rpm for 15 min. The level of fluorescence in the supernatant was then measured by a spectrofluorimeter (Perkin-Elmer LS-SB, Bucks, England) at λ excitation=495, λ emission=525. For the detection of TMN uptake, tissues were homogenized in water containing 1% v/v TritonX-100. One ml of the homogenate was centrifuged (5000 rpm, 15 min), and TMN concentration was measured by EPR.
# [2] = tested on: inflamed colonic epithelium of the rat; experiment: Tissue staining by charged dyes, inflamed colonic sacs; conditions: 15 min incubation, mean±SEM
# Method: Twenty-four hours prior to colitis induction the rats were deprived of food, but allowed free access to water. The water contained 10 mg/l of the laxatives sennoside-A and sennoside-B (X-Prep Liquid®, Rafa Pharmaceuticals, Israel) and sucrose (200 g/l). With the rats under light ether inhalation anesthesia, colitis was induced by intracolonic administration of 30 mg of dinitrobenzensulfonic acid (DNBS) dissolved in 1 ml of an ethanolic solution 25% (v/v). The solution was instilled slowly over 20 s via a flexible, perforated foley catheter, which was then immediately removed, leaving the rats in an upside down position for another 40 s. Colonic sacs, of either healthy or inflamed rat colonic tissues, were prepared as described above and filled, in separate studies, with 0.5 ml of aqueous solutions (containing 2% v/v DMSO) of either of the cationic dye, hematoxylin (1 mg/ml), or the anionic dye, eosin B (0.5 mg/ml). The sacs were incubated in 15 ml of PBS containing glucose (10 mM), at 37° C. (glass vial) for 15 min in a shaking bath, after which the sacs were cut open, measured for their surface area (ruler) and rinsed (PBS) three times. […] The concentration of dyes in the tissue homogenates was measured spectrophotometrically (Uvikon 933, Kontron Switzerland), at 292 nm (hematoxylin) or 523 nm (eosin B).
# [3] = tested on: healthy colonic epithelium of the rat; experiment: Tissue staining by charged dyes, healthy colonic sacs; conditions: 15 min incubation, mean±SEM
# Method: Colonic sacs, of either healthy or inflamed rat colonic tissues, were prepared as described above and filled, in separate studies, with 0.5 ml of aqueous solutions (containing 2% v/v DMSO) of either of the cationic dye, hematoxylin (1 mg/ml), or the anionic dye, eosin B (0.5 mg/ml). The sacs were incubated in 15 ml of PBS containing glucose (10 mM), at 37° C. (glass vial) for 15 min in a shaking bath, after which the sacs were cut open, measured for their surface area (ruler) and rinsed (PBS) three times. The tissues incubated with eosin B were then homogenized in 3 ml of absolute methanol, while the tissues incubated with hematoxylin were homogenized in 3 ml of absolute ethanol. The concentration of dyes in the tissue homogenates was measured spectrophotometrically (Uvikon 933, Kontron Switzerland), at 292 nm (hematoxylin) or 523 nm (eosin B).
Compound,reduction of tumor recurrence (tumor recurrence) [%],tissue potassium levels (jejunal mucosa) [μmol/mg tissue],tissue LDH activity (jejunal mucosa) [U/mg tissue],tissue uptake [1],tissue uptake relative to free SOD uptake [1] [fold],dye attachment to inflamed colonic epithelium [2] [μg/cm^2],dye attachment to healthy colonic epithelium [3] [μg/cm^2]
catalase,40,–,–,–,–,–,–
superoxide dismutase [native SOD],50,0.37±0.03,11.8±0.3,2.5±1.6 % uptake of initial amount,–,–,–
"CC1(C)CC(N)CC(C)(C)N1[O] [free TMN, 4-amino tempol]",–,0.33±0.08,9.0±1.3,6.8±1.1 % uptake of initial amount,3,–,–
Oc1cc2c(cc1O)[C@@H]1c3ccc(O)c(O)c3OC[C@]1(O)C2 [hematoxylin],–,–,–,–,–,19.6±1.36,26.2±2.8
O=C(O)c1ccccc1-c1c2cc([N+](=O)[O-])c(=O)c(Br)c-2oc2c(Br)c(O)c([N+](=O)[O-])cc12 [eosin B],–,–,–,–,–,0.19±0.012,0.12±0.011
